According to US11219221B2 (FarmHannong Co., Ltd., priority 2017, dated 2022):

Key:
[1] = tested on: CyPPO16 wild type (SEQ ID NO: 1) in PPO-deficient E. coli BT3(ΔPPO); assay type: cell-based; conditions: LB agar, 37° C., light, 16 to 20 hours
Experimental: (§1) The mutated CyPPO gene obtained from the Example 2 was transformed to BT3 (ΔPPO) strain which is deficient of PPO activity and cultured in LB media with PPO-inhibiting herbicide, thereby examining whether growth of transformed BT3 was not inhibited.
(§2) BT3 competent cells were transformed with the pET303-CyPPO16 and pET303-CyPPO17 plasmids and those with a mutation(s) constructed in Example 2 respectively, and were cultured in LB agar media containing carbenicillin (Gold Biotechnology, Co., Ltd.).
(§3) Single colony of E. coli transformed with each CyPPO gene was cultured in 3 ml of LB broth containing carbenicillin overnight, and then was subcultured until absorbance (0D600) reached 0.5 to 1. Then, it was diluted with LB broth to OD600=0.5. Again, the diluted solution was serially diluted 4 times by a factor of one tenth.
(§4) The LB agar media (LB 25 g/l, Bacto agar 15 g/l) containing carbenicillin (100 μg/ml) and 0 to 4,000 μM of various herbicides dissolved in DMSO was prepared. Next, 10 μl of each diluted solution was dropped on the plate and cultured at 37° C. under light (Tables 7 and 9, FIGS. 2 to 6, and 18 to 22) or dark (Tables 8 and 10, FIGS. 7 to 17, and 23 to 33) for 16 to 20 hours. Then, extent of tolerance was evaluated.
(§5) The extent of herbicide tolerance of the mutated genes was evaluated by comparing that of mutated genes with that of wild type. The relative tolerance was represented with “+” as a factor of 10 times. Evaluation result was listed in Tables 7 to10 and FIGS. 2 to 33:
(§6) In Tables 7 to 10, tolerance level was presented as of tolerance of wild type and of variants equivalent to that of wild type, and was done as ‘+’ per each 10 fold resistance until ‘+++++’ as maximal resistance. (Tolerance level was evaluated by relative growth level of variants to that of wild type in the media containing highest concentration of herbicide; ‘+’=1-9 fold higher tolerance, ‘++’=10-99 fold higher tolerance, ‘+++’=100-999 fold higher tolerance, ‘++++’=1,000-9,999 fold higher tolerance, ‘+++++’=more than 10,000 fold higher tolerance)

[2] = tested on: CyPPO17 wild type (SEQ ID NO: 3) in PPO-deficient E. coli BT3(ΔPPO); assay type: cell-based; conditions: LB agar, 37° C., light, 16 to 20 hours
Experimental: as §1, §2, §3, §4, §5, §6

[3] = tested on: CyPPO16 (SEQ ID NO: 1) variant A162C in PPO-deficient E. coli BT3(ΔPPO); assay type: cell-based; conditions: LB agar, 37° C., light, 16 to 20 hours
Experimental: as §1, §2, §3, §4
(§7) The extent of herbicide tolerance of the mutated genes was evaluated by comparing that of mutated genes with that of wild type. The relative tolerance was represented with “+” as a factor of 10 times.
(§8) In Tables 7 to 10, tolerance level was presented as of tolerance of wild type and of variants equivalent to that of wild type, and was done as ‘+’ per each 10 fold resistance until ‘+++++’ as maximal resistance.

[4] = tested on: CyPPO16 (SEQ ID NO: 1) variant A162L in PPO-deficient E. coli BT3(ΔPPO); assay type: cell-based; conditions: LB agar, 37° C., light, 16 to 20 hours
Experimental: as §1, §2, §3, §4, §7, §8

[5] = tested on: CyPPO16 (SEQ ID NO: 1) variant F360C in PPO-deficient E. coli BT3(ΔPPO); assay type: cell-based; conditions: LB agar, 37° C., light, 16 to 20 hours
Experimental: as §1, §2, §3, §4, §7, §8

[6] = tested on: CyPPO16 (SEQ ID NO: 1) variant F360I in PPO-deficient E. coli BT3(ΔPPO); assay type: cell-based; conditions: LB agar, 37° C., light, 16 to 20 hours
Experimental: as §1, §2, §3, §4, §7, §8

[7] = tested on: CyPPO16 (SEQ ID NO: 1) variant F360L in PPO-deficient E. coli BT3(ΔPPO); assay type: cell-based; conditions: LB agar, 37° C., light, 16 to 20 hours
Experimental: as §1, §2, §3, §4, §7, §8

[8] = tested on: CyPPO16 (SEQ ID NO: 1) variant F360M in PPO-deficient E. coli BT3(ΔPPO); assay type: cell-based; conditions: LB agar, 37° C., light, 16 to 20 hours
Experimental: as §1, §2, §3, §4, §7, §8

[9] = tested on: CyPPO16 (SEQ ID NO: 1) variant F360V in PPO-deficient E. coli BT3(ΔPPO); assay type: cell-based; conditions: LB agar, 37° C., light, 16 to 20 hours
Experimental: as §1, §2, §3, §4, §7, §8

[10] = tested on: CyPPO16 (SEQ ID NO: 1) variant V305M in PPO-deficient E. coli BT3(ΔPPO); assay type: cell-based; conditions: LB agar, 37° C., light, 16 to 20 hours
Experimental: as §1, §2, §3, §4, §7, §8

[11] = tested on: CyPPO17 (SEQ ID NO: 3) variant A166C in PPO-deficient E. coli BT3(ΔPPO); assay type: cell-based; conditions: LB agar, 37° C., light, 16 to 20 hours
Experimental: as §1, §2, §3, §4, §7, §8

[12] = tested on: CyPPO17 (SEQ ID NO: 3) variant A166L in PPO-deficient E. coli BT3(ΔPPO); assay type: cell-based; conditions: LB agar, 37° C., light, 16 to 20 hours
Experimental: as §1, §2, §3, §4, §7, §8

[13] = tested on: CyPPO17 (SEQ ID NO: 3) variant F359C in PPO-deficient E. coli BT3(ΔPPO); assay type: cell-based; conditions: LB agar, 37° C., light, 16 to 20 hours
Experimental: as §1, §2, §3, §4, §7, §8

[14] = tested on: CyPPO17 (SEQ ID NO: 3) variant F359I in PPO-deficient E. coli BT3(ΔPPO); assay type: cell-based; conditions: LB agar, 37° C., light, 16 to 20 hours
Experimental: as §1, §2, §3, §4, §7, §8

[15] = tested on: CyPPO17 (SEQ ID NO: 3) variant F359L in PPO-deficient E. coli BT3(ΔPPO); assay type: cell-based; conditions: LB agar, 37° C., light, 16 to 20 hours
Experimental: as §1, §2, §3, §4, §7, §8

[16] = tested on: CyPPO17 (SEQ ID NO: 3) variant F359M in PPO-deficient E. coli BT3(ΔPPO); assay type: cell-based; conditions: LB agar, 37° C., light, 16 to 20 hours
Experimental: as §1, §2, §3, §4, §7, §8

[17] = tested on: CyPPO17 (SEQ ID NO: 3) variant V304L in PPO-deficient E. coli BT3(ΔPPO); assay type: cell-based; conditions: LB agar, 37° C., light, 16 to 20 hours
Experimental: as §1, §2, §3, §4, §7, §8

[18] = tested on: CyPPO17 (SEQ ID NO: 3) variant V304M in PPO-deficient E. coli BT3(ΔPPO); assay type: cell-based; conditions: LB agar, 37° C., light, 16 to 20 hours
Experimental: as §1, §2, §3, §4, §7, §8

[19] = target: Spirulina subsalsa PPO CyPPO16 (SEQ ID NO: 1) variant A162L (MBP fusion); experiment: PPO enzyme inhibition (IC50), MBP-fused PPO; assay type: biochemical; conditions: 50 μM protoporphyrinogen IX, pH 8.0, room temperature, 30 min
Experimental: (§9) Thus, PPO proteins of wild type and variants were expressed as fused to MBP and were used for experiments.
(§10) The following process for purification of PPO protein was performed in a 4° C. cold room. Amylose resin (NEB) was packed to 1.5×15 cm column (Bio-Rad, Econo Columns 1.5×15 cm, glass chromatography column, max. vol), and the obtained protein extracts were loaded to the column at a flow rate of 0.2 ml/min. The column was washed with 3 column volumes of buffer and the presence of protein in the washing solution was examined. When the protein was no longer detected, the washing procedure was terminated. Then, the MBP-PPO protein was eluted with approximately 2 column volumes of buffer containing 20 mM maltose. The protein concentration of each eluent was determined and the elution was stopped when the protein was no longer detected. Ten microliter of each fraction was investigated for protein quantification and SDS-PAGE analysis. The highly pure fractions of PPO protein variants were used for the enzyme assay.
(§11) Since protoporphyrinogen IX, a substrate of PPO protein, was not commercially available, it was chemically synthesized in the laboratory. Overall process was performed in dark under nitrogen stream. […] of protoporphyrin IX was dissolved in 20 ml of 20% (v/v) EtOH, and stirred under dark condition for 30 minutes. The obtained protoporphyrin IX solution was put into a 15 ml screw tube in an amount of 800 μl, and flushed with nitrogen gas for 5 minutes. To this, 1.5 g of sodium amalgam was added and vigorously shaken for 2 minutes. The lid was opened to exhaust hydrogen gas in the tube. Thereafter, the lid was closed and incubated for 3 minutes. The protoporphyrinogen IX solution was filtered using syringe and cellulose membrane filter. […] To determine the enzyme activity of PPO protein, a reaction mixture was prepared with the following composition (based on 10 ml): 50 mM Tris-Cl (pH 8.0); 50 mM NaCl; 0.04% (v/v) Tween 20; 40 mM glucose (0.072 g); 5 units glucose oxidase (16.6 mg); and 10 units catalase (1 μl).
(§12) Hundred and eighty microliters of a reaction mixture containing the purified PPO protein were placed in 96 well plates and 20 μl of […] were added. […] The reaction proceeded at room temperature for 30 min and the fluorescence of protoporphyrin IX was measured using Microplate reader (Sense, Hidex) (excitation: 405 nm; emission: 633 nm). […] To this, 2.7 N HCl was added, and the absorbance at 408 nm was measured. A standard curve was generated using standard protoporphyrin IX, and PPO activity was measured by calibration of protoporphyrin IX using the standard curve of protoporphyrin IX.

[20] = target: Spirulina subsalsa PPO CyPPO16 (SEQ ID NO: 1) variant L327T (MBP fusion); experiment: PPO enzyme inhibition (IC50), MBP-fused PPO; assay type: biochemical; conditions: 50 μM protoporphyrinogen IX, pH 8.0, room temperature, 30 min
Experimental: as §9, §10, §11, §12

[21] = target: Spirulina subsalsa PPO CyPPO16 (SEQ ID NO: 1) variant R85A (MBP fusion); experiment: PPO enzyme inhibition (IC50), MBP-fused PPO; assay type: biochemical; conditions: 50 μM protoporphyrinogen IX, pH 8.0, room temperature, 30 min
Experimental: as §9, §10, §11, §12

[22] = target: Spirulina subsalsa PPO CyPPO16 (SEQ ID NO: 1) variant V160C (MBP fusion); experiment: PPO enzyme inhibition (IC50), MBP-fused PPO; assay type: biochemical; conditions: 50 μM protoporphyrinogen IX, pH 8.0, room temperature, 30 min
Experimental: as §9, §10, §11, §12

[23] = target: Spirulina subsalsa PPO CyPPO16 (SEQ ID NO: 1) variant V305M (MBP fusion); experiment: PPO enzyme inhibition (IC50), MBP-fused PPO; assay type: biochemical; conditions: 50 μM protoporphyrinogen IX, pH 8.0, room temperature, 30 min
Experimental: as §9, §10, §11, §12

[24] = target: Spirulina subsalsa PPO CyPPO16, wild type, SEQ ID NO: 1 (MBP fusion); experiment: PPO enzyme inhibition (IC50), MBP-fused PPO; assay type: biochemical; conditions: 50 μM protoporphyrinogen IX, pH 8.0, room temperature, 30 min
Experimental: as §9, §10, §11, §12

CC(C)N(C)S(=O)(=O)NC(=O)c1cc(-n2c(=O)cc(C(F)(F)F)n(C)c2=O)c(F)cc1Cl [saflufenacil]
Herbicide tolerance (relative to wild type) [1]: − | Herbicide tolerance (relative to wild type) [2]: − | Herbicide tolerance (relative to wild type) [3]: +++ (100-999 fold higher tolerance) | Herbicide tolerance (relative to wild type) [4]: +++ (100-999 fold higher tolerance) | Herbicide tolerance (relative to wild type) [5]: +++ (100-999 fold higher tolerance) | Herbicide tolerance (relative to wild type) [6]: +++ (100-999 fold higher tolerance) | Herbicide tolerance (relative to wild type) [7]: +++ (100-999 fold higher tolerance) | Herbicide tolerance (relative to wild type) [8]: +++ (100-999 fold higher tolerance) | Herbicide tolerance (relative to wild type) [9]: +++ (100-999 fold higher tolerance) | Herbicide tolerance (relative to wild type) [10]: +++ (100-999 fold higher tolerance) | Herbicide tolerance (relative to wild type) [11]: +++ (100-999 fold higher tolerance) | Herbicide tolerance (relative to wild type) [12]: +++ (100-999 fold higher tolerance) | Herbicide tolerance (relative to wild type) [13]: +++ (100-999 fold higher tolerance) | Herbicide tolerance (relative to wild type) [14]: +++ (100-999 fold higher tolerance) | Herbicide tolerance (relative to wild type) [15]: +++ (100-999 fold higher tolerance) | Herbicide tolerance (relative to wild type) [16]: +++ (100-999 fold higher tolerance) | Herbicide tolerance (relative to wild type) [17]: + (1-9 fold higher tolerance) | Herbicide tolerance (relative to wild type) [18]: +++ (100-999 fold higher tolerance)

Cc1nn(-c2cc(NS(C)(=O)=O)c(Cl)cc2Cl)c(=O)n1C(F)F [sulfentrazone]
IC50 [19]: 1100 nM | IC50 [20]: 1830 nM | IC50 [21]: 1040 nM | IC50 [22]: 584 nM | IC50 [23]: 305 nM | IC50 [24]: 245 nM
